Reference: US9822128B1, “Substituted spirooxindoles” (KING SAUD UNIVERSITY, priority 2017, dated 2017)
Like-named read-outs stand apart in the source and are kept apart here.

Assays:
HepG2 = assay: MTT cytotoxicity assay, hepatocellular carcinoma cells; assay type: cell-based, human; conditions: for IC50: Homo sapiens, HepG2, MTT, 48 hrs incubation; for SI: Selectivity Index from IC50 normal (VERO-B) and IC50 cancer (HepG2)
Procedure: (§1) The cytotoxic activity of the compounds was tested against different mammalian cancer cells, prostate carcinoma cells (PC-3), hepatocellular carcinoma (HepG2) and colon cancer cells (HCT-116) and against African green monkey kidney cell line (Vero-B). The cell lines were obtained from American Type Culture Collection (ATCC). The cells were cultivated at 37° C. and 10% CO2 in DMEM (Lonza, 12-604F) medium supplemented with 10% fetal bovine serum (FBS, Lonza, Cat. No. 14-801E), 100 IU/ml penicillin and 100 μg/ml streptomycin (Lonza, 17-602E). Cisplatin (cis-diamineplatinum (II) dichloride) was used as a positive control and was obtained from Sigma then dissolved in 0.9% saline then stored as 8 mM stock solution at −20° C. The synthesized compounds were solubilized in DMSO and stored at −20° C. 0.5% crystal violet was prepared in Methanol and was used to stain the viable cells (Feoktistova, Geserick et al. 2016). Crystal violet binds to proteins and DNA in the adherent and viable cells so the stain is an indicator for the viability of the treated cells. The viability of the cells were quantified by using MTT reagent (3-(4,5-dimethylthiazol-2-yl)-2,5-diphenyl tetrazolium bromide), which measure the activity of mitochondrial dehydrogenase in the viable cells (Slater, Sawyer et al. 1963, Mosmann 1983).
(§2) Cytotoxicity was further assayed as follows. The cells were seeded in 96-well plate as 5*10^4 cells/mL (100 μL/well). A serial dilutions of tested compounds or cisplatin (100, 30, 10, 3.3, 1.1 or 0.37 μM) was added after overnight incubation of the cells at 37° C. and 5% CO2. DMSO was used as a control (0.1%). The cells were incubated for 48 hrs. After that, 15 μl of MTT (5 mg/mL PBS) was added to each well and incubated for another 4 hours. The formazan crystals were solubilized by 100 μL acidified SDS solution (10% SDS/0.01 M HCl). The absorbance was measured after 14 hours of incubation at 37° C. and 5% CO2 at 570 nm by Biotech plate reader. Each experiment was repeated three times and standard deviation was calculated (±). IC50% was calculated as the concentration that cause 50% inhibition for cell growth. The growth of the cells were monitored and the images were acquired by Gx microscopes (GXMGXD202 Inverted Microscope) (10× Eyepiece) after staining with crystal violet.

HCT-116 = assay: MTT cytotoxicity assay, colon cancer cells; assay type: cell-based, human; conditions: for SI: Selectivity Index from IC50 normal (VERO-B) and IC50 cancer (HCT-116)
Procedure: as §1, §2

Vero-B = assay: MTT cytotoxicity assay, normal kidney cell line; assay type: cell-based, African green monkey; conditions: Chlorocebus sabaeus, Vero B, read-out: VERO-B (IC50% μM)
Procedure: as §1, §2

[1] = Homo sapiens, HCT-116, MTT, 48 hrs incubation, read-out: HCT-116 (IC50% μM)
[2] = Homo sapiens, HCT-116, MTT, 48 hrs incubation, read-out: HCT-116 (IC50% μg/ml)
[3] = Table 1, MTT, 48 hrs incubation
[4] = Homo sapiens, HCT-116, 48 h, read-out: HCT-116 (IC50% μM), MTT, 48 hrs incubation
[5] = Homo sapiens, HCT-116, 48 h, read-out: HCT-116 (IC50% μg/ml), MTT, 48 hrs incubation
[6] = read-out: HCT-116 (IC50% μM), MTT, 48 hrs incubation

SMILES | IC50 (HepG2; read-out: HepG2 (IC50% μM)) | IC50 (HepG2; read-out: HepG2 (IC50% μg/ml)) | SI (HepG2) | IC50 (HCT-116; [1]) | IC50 (HCT-116; [2]) | SI (HCT-116) | IC50 (Vero-B; [3]) | IC50 (HCT-116; [4]) | IC50 (HCT-116; [5]) | IC50 (Vero-B; 48 h) | IC50 (HCT-116; [6])
Cc1ccc(/C=C/C(=O)[C@H]2[C@H](c3ccc(C)cc3)[C@H]3CSCN3[C@]23C(=O)Nc2ccccc23)cc1 [Compound 4b, (3R,6′S,7′R,7a′S)-7′-(p-tolyl)-6′-((E)-3-(p-tolyl)acryloyl)-1′,6′,7′,7a′-tetrahydro-3′H-spiro[indoline-3,5′-pyrrolo[1,2-c]thiazol]-2-one] | 3.57 ± 0.5 µM | 1.7 µg/mL | 3.305 | 8 ± 1.2 µM | 3.8 µg/mL | 1.475 | 11.8 µM |  |  |  | 
O=C(/C=C/c1c(Cl)cccc1Cl)[C@H]1[C@H](c2c(Cl)cccc2Cl)[C@H]2CSCN2[C@]12C(=O)Nc1ccccc12 [Compound 4e, (3R,6′S,7′R,7a′S)-7′-(2,6-dichlorophenyl)-6′-((E)-3-(2,6-dichlorophenyl)acryloyl)-1′,6′,7′,7a′-tetrahydro-3′H-spiro[indoline-3,5′-pyrrolo[1,2-c]thiazol]-2-one] | 1 ± 0.3 µM | 0.6 µg/mL | 3 | 3 ± 0.3 µM | 1.8 µg/mL | 1 | 3 µM |  |  |  | 
O=C(/C=C/c1ccc(Br)cc1)[C@H]1[C@H](c2ccc(Br)cc2)[C@H]2CSCN2[C@]12C(=O)Nc1ccccc12 [Compound 4f, (3R,6′S,7′R,7a′S)-7′-(4-bromophenyl)-6′-((E)-3-(4-bromophenyl)acryloyl)-1′,6′,7′,7a′-tetrahydro-3′H-spiro[indoline-3,5′-pyrrolo[1,2-c]thiazol]-2-one] | 0.8 ± 0.1 µM | 0.5 µg/mL | 3.75 | 3 ± 0.5 µM | 1.8 µg/mL | 1 | 3 µM |  |  |  | 
O=C(/C=C/c1cccc([N+](=O)[O-])c1)[C@H]1[C@H](c2cccc([N+](=O)[O-])c2)[C@H]2CSCN2[C@]12C(=O)Nc1ccccc12 [Compound 4g] |  |  |  |  |  | 1 |  | 2.5 ± 0.2 µM | 1.4 µg/mL | 2.5 µM | 
COc1ccc(/C=C/C(=O)[C@H]2[C@H](c3ccc(OC)cc3)[C@H]3CSCN3[C@]23C(=O)Nc2ccccc23)cc1 [Compound 4h, (3R,6′S,7′R,7a′S)-7′-(4-methoxyphenyl)-6′-((E)-3-(4-methoxyphenyl)acryloyl)-1′,6′,7′,7a′-tetrahydro-3′H-spiro[indoline-3,5′-pyrrolo[1,2-c]thiazol]-2-one] | 2.25 ± 0.2 µM | 1.1 µg/mL | 3.333 | 7 ± 0.9 µM | 3.6 µg/mL | 1.071 | 7.5 µM |  |  |  | 
O=C(/C=C/c1cccs1)[C@H]1[C@H](c2cccs2)[C@H]2CSCN2[C@]12C(=O)Nc1ccccc12 [Compound 4j, (3R,6′S,7′S,7a′S)-7′-(thiophen-2-yl)-6′-((E)-3-(thiophen-2-yl)acryloyl)-1′,6′,7′,7a′-tetrahydro-3′H-spiro[indoline-3,5′-pyrrolo[1,2-c]thiazol]-2-one] |  |  |  |  |  | 1.241 |  | ≥ 10 µM | 6.7 µg/mL | 18 µM | 14.5 ± 1.5 µM
O=C(/C=C/c1ccco1)[C@H]1[C@H](c2ccco2)[C@H]2CSCN2[C@]12C(=O)Nc1ccccc12 [Compound 4k, (3R,6′S,7′S,7a′S)-7′-(furan-2-yl)-6′-((E)-3-(furan-2-yl)acryloyl)-1′,6′,7′,7a′-tetrahydro-3′H-spiro[indoline-3,5′-pyrrolo[1,2-c]thiazol]-2-one] |  |  |  |  |  | 1.316 |  | ≥ 10 µM | 10.1 µg/mL | 25 µM | 19 ± 2 µM
